Laboratory results from PMC3431846, “2,3-Dihydro-1H-cyclopenta[b]quinoline Derivatives as Acetylcholinesterase Inhibitors—Synthesis, Radiolabeling and Biodistribution” (International Journal of Molecular Sciences, 2012).
Counter-ions that a name gives are not always drawn.

Tests used:
[1] = target: Butyrylcholinesterase from equine serum (Equus caballus, UniProt P81908); test: biochemical
[2] = target: Acetylcholinesterase from Electrophorus electricus (electric eel) (Electrophorus electricus, UniProt O42275); test: biochemical
[3] = Biodistribution of radioactivity in rats after intravenous 99mTc-6a; conditions: 99mTc-labelled, in words
Method: For biodistribution studies, male Wistar rats weighing 190–260 g were used. Prior to the experiment, the animals were fasted overnight (to empty the bowels), but had free access to water. All animal experiments were approved by the Ethics Committee of the Faculty of Pharmacy, Charles University, Hradec Kralove.
The agent was administered to rats intravenously in a volume of 0.2 mL. During the course of the experiments, each animal was placed in an individual cage. At various time points after injection, the carotid artery was exposed under ether anesthesia and a blood sample was collected in glass tubes containing dry heparin. The rats were sacrificed and dissected.
The results were expressed as mean ± standard deviations of at least four animals.

acetylcholinesterase = conditions: in words; cited from earlier work

Butyrylcholinesterase from equine serum, sequence (P81908 whole entry): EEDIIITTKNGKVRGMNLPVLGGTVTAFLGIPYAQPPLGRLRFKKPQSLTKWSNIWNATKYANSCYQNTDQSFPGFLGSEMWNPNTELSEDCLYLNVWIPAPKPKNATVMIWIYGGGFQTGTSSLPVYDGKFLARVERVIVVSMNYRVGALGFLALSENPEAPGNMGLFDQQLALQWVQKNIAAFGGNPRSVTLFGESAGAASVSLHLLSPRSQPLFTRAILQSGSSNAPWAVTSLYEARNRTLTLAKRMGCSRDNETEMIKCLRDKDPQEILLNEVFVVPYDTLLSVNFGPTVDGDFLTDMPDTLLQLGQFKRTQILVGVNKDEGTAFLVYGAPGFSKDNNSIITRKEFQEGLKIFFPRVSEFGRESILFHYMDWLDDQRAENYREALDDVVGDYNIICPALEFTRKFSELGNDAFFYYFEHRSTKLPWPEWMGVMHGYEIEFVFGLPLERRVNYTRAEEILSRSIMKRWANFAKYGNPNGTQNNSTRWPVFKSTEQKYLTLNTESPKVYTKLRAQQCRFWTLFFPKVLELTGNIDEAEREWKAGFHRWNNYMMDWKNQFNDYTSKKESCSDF
Acetylcholinesterase from Electrophorus electricus (electric eel), sequence (O42275 24-633): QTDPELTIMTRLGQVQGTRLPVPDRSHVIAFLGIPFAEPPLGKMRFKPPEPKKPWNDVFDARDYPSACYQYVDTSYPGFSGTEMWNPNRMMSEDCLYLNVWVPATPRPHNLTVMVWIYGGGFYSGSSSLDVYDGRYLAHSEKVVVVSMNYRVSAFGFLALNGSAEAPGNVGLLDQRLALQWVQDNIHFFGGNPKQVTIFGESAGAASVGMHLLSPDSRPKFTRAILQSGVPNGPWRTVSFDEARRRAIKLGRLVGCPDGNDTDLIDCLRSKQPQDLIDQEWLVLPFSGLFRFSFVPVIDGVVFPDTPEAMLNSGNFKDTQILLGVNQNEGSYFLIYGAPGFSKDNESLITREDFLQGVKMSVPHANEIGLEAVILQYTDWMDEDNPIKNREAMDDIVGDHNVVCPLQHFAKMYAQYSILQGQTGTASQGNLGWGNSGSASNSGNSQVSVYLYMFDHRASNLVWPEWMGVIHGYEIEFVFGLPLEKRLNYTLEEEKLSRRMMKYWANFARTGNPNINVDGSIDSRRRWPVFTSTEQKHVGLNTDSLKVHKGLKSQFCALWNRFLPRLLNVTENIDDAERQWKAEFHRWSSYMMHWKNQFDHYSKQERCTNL

| SMILES | IC50 [1] [nM] | IC50 [2] [nM] | blood radioactivity clearance [3] | potency compared with tacrine (acetylcholinesterase) |
| --- | --- | --- | --- | --- |
| Cl.NNc1ccc(C(=O)NCCNc2c3c(nc4ccccc24)CCC3)cn1 [Compound 6a, 6-Hydrazino-N-[2-(2,3-dihydro-1H-cyclopenta[b]quinolin-9-ylamino)Ethyl]nicotinamide hydrochloride] | 164 ± 1.6 | 31.5 ± 1.9 | comparatively rapid | – |
| NNc1ccc(C(=O)NCCCCCNc2c3c(nc4ccccc24)CCC3)cn1 [Compound 6d, 6-Hydrazino-N-[5-(2,3-dihydro-1H-cyclopenta[b]quinolin-9-ylamino)pentyl]nicotinamide hydrochloride] | 4240 ± 2.2 | 7.84 ± 2.2 | – | – |
| Nc1c2c(nc3cc(F)ccc13)CCCC2O (stereo not shown) [6-fluorotacrin-1-ol] | – | – | – | more potent than tacrine |
| NNc1ccc(C(=O)NCCCCCCCCCNc2c3c(nc4ccccc24)CCC3)cn1 [Compound 6h, 6-Hydrazino-N-[9-(2,3-dihydro-1H-cyclopenta[b]quinolin-9-ylamino)nonyl]nicotinamide hydrochloride] | 17100 ± 21.3 | 3.65 ± 0.5 | – | – |
| NNc1ccc(C(=O)NCCCCCCCNc2c3c(nc4ccccc24)CCC3)cn1 [Compound 6f, 6-Hydrazino-N-[7-(2,3-dihydro-1H-cyclopenta[b]quinolin-9-ylamino)heptyl]nicotinamide hydrochloride] | 22700 ± 20.6 | 17.6 ± 0.8 | – | – |
| NNc1ccc(C(=O)NCCCCCCNc2c3c(nc4ccccc24)CCC3)cn1 [Compound 6e, 6-Hydrazino-N-[6-(2,3-dihydro-1H-cyclopenta[b]quinolin-9-ylamino)hexyl]nicotinamide hydrochloride] | 16600 ± 17.5 | 41.6 ± 1 | – | – |
| NNc1ccc(C(=O)NCCCCNc2c3c(nc4ccccc24)CCC3)cn1 [Compound 6c, 6-Hydrazino-N-[4-(2,3-dihydro-1H-cyclopenta[b]quinolin-9-ylamino)butyl]nicotinamide hydrochloride] | 2650 ± 9.5 | 22.4 ± 1.7 | – | – |
| Nc1c2c(nc3cc(Cl)ccc13)CCCC2O (stereo not shown) [6-chlorotacrin-1-ol] | – | – | – | more potent than tacrine |
| NNc1ccc(C(=O)NCCCNc2c3c(nc4ccccc24)CCC3)cn1 [Compound 6b, 6-Hydrazino-N-[3-(2,3-dihydro-1H-cyclopenta[b]quinolin-9-ylamino)propyl]nicotinamide hydrochloride] | 197 ± 3.4 | 19.3 ± 1.1 | – | – |
| NNc1ccc(C(=O)NCCCCCCCCNc2c3c(nc4ccccc24)CCC3)cn1 [Compound 6g, 6-Hydrazino-N-[8-(2,3-dihydro-1H-cyclopenta[b]quinolin-9-ylamino)octyl]nicotinamide hydrochloride] | 19600 ± 16.4 | 5.17 ± 1.4 | – | – |
